# Tests used:
# Assay type in all cases: in vivo
# [1] = system: barnyardgrass (Echinochloa crus-galli); assay: Test B flooded paddy: barnyardgrass; conditions: Flood; 250 g ai/ha; applied to paddy water at 2-leaf stage; visually evaluated after 13 to 15 days
# Summary of the method: (§1)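 At two leaves, seedlings received the test compound via the paddy water, pots having been flooded 3 cm over the soil surface and kept so. Greenhouse-held for 13 to 15 days, then judged by eye against controls on a scale running 0 (no effect) to 100 (complete control).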
# [2] = system: pigweed (Amaranthus retroflexus); assay: Test A pre-/postemergence: pigweed
# Summary of the method: (§2)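 Seeds were sown in loam/sand blend and sprayed preemergence (directed soil spray) and, simultaneously, postemergence at 2–10 cm, one- to two-leaf stage, using compounds in non-phytotoxic solvent with surfactant. After ~10 days in greenhouse, injury was rated visually versus untreated controls, 0 (no effect) to 100 (complete control).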
# [3] = system: barnyardgrass (Echinochloa crus-galli); assay: Test A pre-/postemergence: barnyardgrass
# Summary of the method: as §2
# [4] = system: sedge, umbrella (small-flower umbrella sedge Cyperus difformis); assay: Test B flooded paddy: sedge, umbrella; conditions: Flood; 250 g ai/ha; applied to paddy water at 2-leaf stage; visually evaluated after 13 to 15 days
# Summary of the method: as §1
# [5] = system: winter wheat (Triticum aestivum); assay: Test C pre-/postemergence: winter wheat
# Summary of the method: (§3)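 Visual injury scored 0–100 (100 = complete control) against untreated controls after 13–15 greenhouse days. Surfactant-containing solvent formulations applied either to soil after sowing (loam/sand) or over 1- to 4-leaf plants, 2–18 cm tall.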
# [6] = system: rice (Oryza sativa); assay: Test B flooded paddy: rice; conditions: Flood; 250 g ai/ha; applied to paddy water at 2-leaf stage; visually evaluated after 13 to 15 days
# Summary of the method: as §1
# [7] = system: soybean (Glycine max); assay: Test C pre-/postemergence: soybean
# Summary of the method: as §3
# [8] = system: lambsquarters (Chenopodium album); assay: Test C pre-/postemergence: lambsquarters
# Summary of the method: as §3
# [9] = system: ryegrass, Italian (Italian ryegrass, Lolium multiflorum); assay: Test C pre-/postemergence: ryegrass, Italian
# Summary of the method: as §3
# [10] = system: pigweed (Amaranthus retroflexus); assay: Test C pre-/postemergence: pigweed
# Summary of the method: as §3
# [11] = system: wheat (Triticum aestivum); assay: Test A pre-/postemergence: wheat
# Summary of the method: as §2
# [12] = Postemergence, 125 g ai/ha, 0 to 100 scale, 0 is no effect, 100 is complete control
# [13] = Postemergence, 500 g ai/ha, visual rating on 0 to 100 scale (0 no effect, 100 complete control), approximately ten days
# [14] = Preemergence, 125 g ai/ha, 0 to 100 scale where 0 is no effect and 100 is complete control
# [15] = Preemergence, 500 g ai/ha, 0 to 100 scale (0 no effect, 100 complete control)
# [16] = Postemergence, 31 g ai/ha, scale 0 to 100 (0 no effect, 100 complete control)
# [17] = Postemergence, 62 g ai/ha, scale 0 to 100 (0 no effect, 100 complete control)
# [18] = Postemergence, 125 g ai/ha, scale 0 to 100, 0 no effect, 100 complete control
# [19] = Postemergence, 250 g ai/ha, scale 0 to 100
# [20] = Preemergence, 62 g ai/ha, scale of 0 to 100, 0 is no effect, 100 is complete control
# [21] = Preemergence, 125 g ai/ha, scale 0 to 100, 0 no effect, 100 complete control
# [22] = Preemergence, 250 g ai/ha, scale 0 to 100, 0 no effect, 100 complete control
# [23] = Preemergence, 31 g ai/ha, scale of 0 to 100, 0 is no effect, 100 is complete control
# [24] = Postemergence, 500 g ai/ha, 0 to 100 scale, 0 is no effect, 100 is complete control
# [25] = Postemergence, 250 g ai/ha, scale 0 to 100 (0 no effect, 100 complete control)
# [26] = Preemergence, 31 g ai/ha, scale 0 (no effect) to 100 (complete control)
compound,measurement,setting,value
COc1nn(-c2cccc(F)c2)nc1Cc1ccnc(C(F)(F)F)c1 [Compound 139],"Plant response rating, Barnyardgrass (0 to 100 scale, 0 is no effect, 100 is complete control)",[1],65
same,"Plant response rating, Pigweed",[2]; [12],100
same,Pigweed plant response rating,[2]; [13],100
same,"Plant response rating, Pigweed",[2]; [14],100
same,"Plant response rating, Pigweed",[2]; [15],100
same,Barnyardgrass plant response rating,[3]; [12],90
same,Barnyardgrass plant response rating,[3]; [13],100
same,"Plant response rating, Barnyardgrass",[3]; [14],80
same,"Plant response rating, Barnyardgrass",[3]; [15],100
same,"Plant response rating, Sedge, Umbrella (0 to 100 scale, 0 is no effect, 100 is complete control)",[4],80
same,"Plant response rating, Wheat",[5]; [16],10
same,"Plant response rating, Wheat",[5]; [17],10
same,"Plant response rating, Wheat",[5]; [18],40
same,"Plant response rating, Wheat",[5]; [19],40
same,"Plant response rating, Wheat",[5]; [20],0
same,"Plant response rating, Wheat",[5]; [21],10
same,"Plant response rating, Wheat",[5]; [22],20
same,"Plant response rating, Rice (0 to 100 scale, 0 is no effect, 100 is complete control)",[6],45
same,"Plant response rating, Soybean",[7]; [16],40
same,"Plant response rating, Soybean",[7]; [17],40
same,"Plant response rating, Soybean",[7]; [18],45
same,"Plant response rating, Soybean",[7]; [19],45
same,"Plant response rating, Soybean",[7]; [23],5
same,"Plant response rating, Soybean",[7]; [20],15
same,"Plant response rating, Soybean",[7]; [21],25
same,"Plant response rating, Soybean",[7]; [22],25
same,"Plant response rating, Lambsquarters",[8]; [16],90
same,"Plant response rating, Lambsquarters",[8]; [17],95
same,"Plant response rating, Lambsquarters",[8]; [18],95
same,"Plant response rating, Lambsquarters",[8]; [19],98
same,"Plant response rating, Lambsquarters",[8]; [23],60
same,"Plant response rating, Lambsquarters",[8]; [20],70
same,"Plant response rating, Lambsquarters",[8]; [21],85
same,"Plant response rating, Lambsquarters",[8]; [22],90
same,"Plant response rating, Ryegrass, Italian",[9]; [16],25
same,"Plant response rating, Ryegrass, Italian",[9]; [17],30
same,"Plant response rating, Ryegrass, Italian",[9]; [18],30
same,"Plant response rating, Ryegrass, Italian",[9]; [19],40
same,"Plant response rating, Ryegrass, Italian",[9]; [23],35
same,"Plant response rating, Ryegrass, Italian",[9]; [20],60
same,"Plant response rating, Ryegrass, Italian",[9]; [22],90
same,"Plant response rating, Pigweed",[10]; [16],95
same,"Plant response rating, Pigweed",[10]; [17],98
same,"Plant response rating, Pigweed",[10]; [18],98
same,"Plant response rating, Pigweed",[10]; [19],98
same,"Plant response rating, Pigweed",[10]; [23],98
same,"Plant response rating, Pigweed",[10]; [20],98
same,"Plant response rating, Pigweed",[10]; [21],100
same,"Plant response rating, Pigweed",[10]; [22],100
same,"Plant response rating, Wheat",[11]; [12],30
same,Wheat plant response rating,[11]; [13],40
same,"Plant response rating, Wheat",[11]; [14],10
same,"Plant response rating, Wheat",[11]; [15],50
CCc1nn(-c2ccc(C(F)(F)F)cc2)nc1Oc1ccnc(C(F)(F)F)c1 [Compound 169],"Plant response rating, Barnyardgrass (0 to 100 scale, 0 is no effect, 100 is complete control)",[1],75
same,"Plant response rating, Pigweed",[2]; [12],100
same,Pigweed plant response rating,[2]; [24],100
same,"Plant response rating, Pigweed",[2]; [14],100
same,"Plant response rating, Pigweed",[2]; [15],100
same,"Plant response rating, Barnyardgrass",[3]; [12],80
same,Barnyardgrass plant response rating,[3]; [24],90
same,"Plant response rating, Barnyardgrass",[3]; [14],80
same,"Plant response rating, Barnyardgrass",[3]; [15],90
same,"Plant response rating, Sedge, Umbrella (0 to 100 scale, 0 is no effect, 100 is complete control)",[4],85
same,"Plant response rating, Wheat",[5]; [16],10
same,"Plant response rating, Wheat",[5]; [17],10
same,"Plant response rating, Wheat",[5]; [18],30
same,"Plant response rating, Wheat",[5]; [25],30
same,"Plant response rating, Wheat",[5]; [26],5
same,"Plant response rating, Wheat",[5]; [20],15
same,"Plant response rating, Wheat",[5]; [21],20
same,"Plant response rating, Wheat",[5]; [22],50
same,"Plant response rating, Rice (0 to 100 scale, 0 is no effect, 100 is complete control)",[6],55
same,"Plant response rating, Soybean",[7]; [16],30
same,"Plant response rating, Soybean",[7]; [17],30
same,"Plant response rating, Soybean",[7]; [18],50
same,"Plant response rating, Soybean",[7]; [25],55
same,"Plant response rating, Soybean",[7]; [26],0
same,"Plant response rating, Soybean",[7]; [20],5
same,"Plant response rating, Soybean",[7]; [21],10
same,"Plant response rating, Soybean",[7]; [22],30
same,"Plant response rating, Lambsquarters",[8]; [16],90
same,"Plant response rating, Lambsquarters",[8]; [17],90
same,"Plant response rating, Lambsquarters",[8]; [18],98
same,"Plant response rating, Lambsquarters",[8]; [25],98
same,"Plant response rating, Lambsquarters",[8]; [26],90
same,"Plant response rating, Lambsquarters",[8]; [20],90
same,"Plant response rating, Lambsquarters",[8]; [21],90
same,"Plant response rating, Lambsquarters",[8]; [22],90
same,"Plant response rating, Ryegrass, Italian",[9]; [16],10
same,"Plant response rating, Ryegrass, Italian",[9]; [17],10
same,"Plant response rating, Ryegrass, Italian",[9]; [18],25
same,"Plant response rating, Ryegrass, Italian",[9]; [25],40
same,"Plant response rating, Ryegrass, Italian",[9]; [26],85
same,"Plant response rating, Ryegrass, Italian",[9]; [20],90
same,"Plant response rating, Ryegrass, Italian",[9]; [21],90
same,"Plant response rating, Ryegrass, Italian",[9]; [22],95
same,"Plant response rating, Pigweed",[10]; [16],95
same,"Plant response rating, Pigweed",[10]; [17],95
same,"Plant response rating, Pigweed",[10]; [18],100
same,"Plant response rating, Pigweed",[10]; [25],100
same,"Plant response rating, Pigweed",[10]; [26],100
same,"Plant response rating, Pigweed",[10]; [20],100
same,"Plant response rating, Pigweed",[10]; [21],100
same,"Plant response rating, Pigweed",[10]; [22],100
same,"Plant response rating, Wheat",[11]; [12],30
same,Wheat plant response rating,[11]; [24],40
same,"Plant response rating, Wheat",[11]; [14],20
same,"Plant response rating, Wheat",[11]; [15],50

# Source: patent US9302999B2, “Substituted triazoles as herbicides” (E. I. DU PONT DE NEMOURS AND COMPANY, priority 2012, dated 2016)
